From patent publication US7138361B2, “Herbicidal heterocycles” (E. I. du Pont de Nemours and Company, priority 2000, dated 2006)

Columns and labels:
Type in all cases: in vivo
[1] = system: Nightshade; assay: Test C preemergence
Source text: (§1) Seeds of plant species selected from bermudagrass (Cynodon dactylon), Surinam grass (Brachiaria decumbens), cocklebur (Xanthium strumarium), corn (Zea mays), crabgrass (Digitaria sanguinalis), woolly cupgrass (Eriochloa villosa), giant foxtail (Setaria faberii), goosegrass (Eleusine indica), johnsongrass (Sorghum halepense), kochia (Kochia scoparia), lambsquarters (Chenopodium album), morningglory (Ipomoea hederacea), yellow nutsedge (Cyperus esculentus), pigweed (Amaranthus retroflexus), common ragweed (Ambrosia elatior), soybean (Glycine max) and velvetleaf (Abutilon theophrasti) were planted and treated preemergence with test chemicals formulated in a non-phytotoxic solvent mixture which included a surfactant.
(§2) At the same time, plants selected from these crop and weed species and also winter barley (Hordeum vulgare), blackgrass (Alopecurus myosuroides), canary grass (Phalaris minor), chickweed (Stellaria media), downy brome (Bromus tectorum), green foxtail (Setaria viridis), Italian ryegrass (Lolium multiflorum), wheat (Triticum aestivum), wild oat (Avena fatua) and windgrass (Apera spica-venti) were treated with postemergence applications of some of the test chemicals formulated in the same manner. Plants ranged in height from 2 to 18 cm (1- to 4-leaf stage) for postemergence treatments. Plant species in the flooded paddy test consisted of rice (Oryza saliva), smallflower flatsedge (Cyperus difformis), duck salad (Heteranthera limosa) and barnyardgrass (Echinochloa crus-galli) grown to the 2-leaf stage for testing. Treated plants and controls were maintained in a greenhouse for 12 to 14 days, after which time all species were compared to controls and visually evaluated. Plant response ratings, summarized in Table C, are based on a scale of 0 to 100 where 0 is no effect and 100 is complete control. A dash (-) response means no test result.

[2] = system: Surinam grass (Brachiaria decumbens); assay: Test C preemergence; settings: for Plant response rating (0 to 100), Surinam grass: visual evaluation after 12 to 14 days
Source text: as §1, §2

[3] = system: bermudagrass (Cynodon dactylon); assay: Test C preemergence; settings: for Plant response rating (0 to 100 where 0 is no effect and 100 is complete control), Bermudagrass: visual evaluation after 12 to 14 days
Source text: as §1, §2

[4] = system: cocklebur (Xanthium strumarium); assay: Test C preemergence; settings: for Plant response rating (0 to 100), Cocklebur: visual evaluation after 12 to 14 days
Source text: as §1, §2

[5] = system: common ragweed (Ambrosia elatior); assay: Test C preemergence; settings: preemergence
Source text: as §1, §2

[6] = system: corn (Zea mays); assay: Test C preemergence; settings: for Plant response rating (0 to 100), Corn: visual evaluation after 12 to 14 days
Source text: as §1, §2

[7] = system: crabgrass (Digitaria sanguinalis); assay: Test C preemergence; settings: for Plant response rating (0 to 100), Crabgrass: visual evaluation after 12 to 14 days
Source text: as §1, §2

[8] = system: giant foxtail (Setaria faberii); assay: Test C preemergence; settings: for Plant response rating (0 to 100), Foxtail, Giant: visual evaluation after 12 to 14 days
Source text: as §1, §2

[9] = system: goosegrass (Eleusine indica); assay: Test C preemergence; settings: for Plant response rating (0 to 100), Goosegrass: visual evaluation after 12 to 14 days
Source text: as §1, §2

[10] = system: johnsongrass (Sorghum halepense); assay: Test C preemergence; settings: for Plant response rating (0 to 100), Johnsongrass: visual evaluation after 12 to 14 days
Source text: as §1, §2

[11] = system: kochia (Kochia scoparia); assay: Test C preemergence; settings: for Plant response rating (0 to 100), Kochia: visual evaluation after 12 to 14 days
Source text: as §1, §2

[12] = system: lambsquarters (Chenopodium album); assay: Test C preemergence; settings: for Plant response rating, Lambsquarters: scale 0 to 100, 0 no effect, 100 complete control
Source text: as §1, §2

[13] = system: morningglory (Ipomoea hederacea); assay: Test C preemergence
Source text: as §1, §2

[14] = system: pigweed (Amaranthus retroflexus); assay: Test C preemergence; settings: preemergence
Source text: as §1, §2

[15] = system: soybean (Glycine max); assay: Test C preemergence; settings: preemergence
Source text: as §1, §2

[16] = system: velvetleaf (Abutilon theophrasti); assay: Test C preemergence; settings: preemergence
Source text: as §1, §2

[17] = system: woolly cupgrass (Eriochloa villosa); assay: Test C preemergence; settings: for Plant response rating (0 to 100), Cupgrass, Woolly: visual evaluation after 12 to 14 days
Source text: as §1, §2

[18] = system: yellow nutsedge (Cyperus esculentus); assay: Test C preemergence
Source text: as §1, §2

[19] = system: barnyardgrass (Echinochloa crus-galli); assay: Test C flooded paddy test; settings: for Barnyardgrass plant response rating: Flooded Paddy, scale 0 to 100, 0 no effect, 100 complete control
In short: (§3)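 Rice and three paddy weeds were grown to the 2-leaf stage under flooded conditions, then treated and kept in a greenhouse for 12–14 days. Response was rated visually against untreated controls on a 0–100 scale, where 100 is complete control.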

[20] = system: duck salad (Heteranthera limosa); assay: Test C flooded paddy test; settings: for Ducksalad plant response rating: Flooded Paddy, scale 0 to 100, 0 no effect, 100 complete control
In short: as §3

[21] = system: smallflower flatsedge (Cyperus difformis); assay: Test C flooded paddy test; settings: for Flatsedge plant response rating: Flooded Paddy, scale 0 to 100, 0 no effect, 100 complete control
In short: as §3

[22] = Rate 62 g/ha, scale 0 to 100, 0 no effect, 100 complete control
[23] = Rate 125 g/ha, scale 0 to 100, 0 no effect, 100 complete control
[24] = Rate 250 g/ha, scale 0 to 100, 0 no effect, 100 complete control
[25] = preemergence, Rate 31 g/ha, scale 0 to 100
[26] = preemergence, Rate 125 g/ha, scale 0 to 100, 0 no effect, 100 complete control
[27] = Rate 500 g/ha, visual evaluation after 12 to 14 days
[28] = preemergence, Rate 500 g/ha, visual evaluation after 12 to 14 days
[29] = preemergence, Rate 250 g/ha, scale 0 to 100, 0 no effect, 100 complete control
[30] = flooded paddy test, Rate 62 g/ha, scale 0 to 100 (0 no effect, 100 complete control)

CC(C)Oc1cccc(N2CCC(n3ccc(C(C)(C)C)n3)C2=O)c1 (stereo not drawn) [Compound 70]
40: Plant response rating (0 to 100), Morningglory [13, 28]
80: Plant response rating (0 to 100), Surinam grass ([2]; preemergence, Rate 500 g/ha) | Plant response rating, Bermudagrass [3, 25] | Plant response rating, Ragweed, Common [5, 24] | Plant response rating, Kochia [11, 22]
20: Plant response rating, Nightshade ([1]; Rate 31 g/ha, scale 0 to 100) | Plant response rating, Surinam grass [2, 25] | Plant response rating (0 to 100), Cocklebur ([4]; preemergence, Rate 500 g/ha) | Plant response rating (0 to 100), Corn ([6]; preemergence, Rate 500 g/ha) | Plant response rating, Morningglory [13, 22] | Plant response rating, Pigweed [14, 23] | Plant response rating (0 to 100), Soybean [15, 27] | Plant response rating, Soybean [15, 24]
0: Plant response rating, Cocklebur [4, 22] | Plant response rating, Cocklebur [4, 25] | Plant response rating (0 to 100), Cocklebur ([4]; preemergence, Rate 250 g/ha) | Plant response rating, Cocklebur [4, 26] | Plant response rating, Ragweed, Common ([5]; Rate 31 g/ha, scale 0 to 100) | Plant response rating, Corn [6, 22] | Plant response rating, Corn [6, 25] | Plant response rating (0 to 100), Corn ([6]; preemergence, Rate 250 g/ha) | Plant response rating, Corn [6, 26] | Plant response rating, Foxtail, Giant [8, 25] | Plant response rating, Johnsongrass [10, 22] | Plant response rating, Johnsongrass [10, 25] | Plant response rating, Kochia [11, 25] | Plant response rating, Morningglory [13, 25] | Plant response rating, Morningglory [13, 26] | Plant response rating, Morningglory [13, 29] | Plant response rating, Pigweed ([14]; Rate 31 g/ha, scale 0 to 100) | Plant response rating, Pigweed [14, 24] | Plant response rating, Soybean ([15]; Rate 31 g/ha, scale 0 to 100) | Plant response rating, Velvetleaf ([16]; Rate 31 g/ha, scale 0 to 100) | Plant response rating, Velvetleaf [16, 23] | Plant response rating, Velvetleaf [16, 24] | Plant response rating, Cupgrass, Woolly [17, 25] | Plant response rating, Nutsedge [18, 22] | Plant response rating, Nutsedge [18, 25] | Plant response rating (0 to 100), Nutsedge [18, 28] | Plant response rating, Nutsedge [18, 26] | Plant response rating, Nutsedge [18, 29]
100: Plant response rating, Bermudagrass [3, 22] | Plant response rating (0 to 100 where 0 is no effect and 100 is complete control), Bermudagrass ([3]; preemergence, Rate 250 g/ha) | Plant response rating (0 to 100 where 0 is no effect and 100 is complete control), Bermudagrass ([3]; preemergence, Rate 500 g/ha) | Plant response rating, Bermudagrass [3, 26] | Plant response rating (0 to 100), Ragweed, Common [5, 27] | Plant response rating, Crabgrass [7, 22] | Plant response rating (0 to 100), Crabgrass ([7]; preemergence, Rate 250 g/ha) | Plant response rating (0 to 100), Crabgrass ([7]; preemergence, Rate 500 g/ha) | Plant response rating, Crabgrass [7, 26] | Plant response rating, Foxtail, Giant [8, 22] | Plant response rating (0 to 100), Foxtail, Giant ([8]; preemergence, Rate 250 g/ha) | Plant response rating (0 to 100), Foxtail, Giant ([8]; preemergence, Rate 500 g/ha) | Plant response rating, Foxtail, Giant [8, 26] | Plant response rating (0 to 100), Goosegrass ([9]; preemergence, Rate 250 g/ha) | Plant response rating (0 to 100), Goosegrass ([9]; preemergence, Rate 500 g/ha) | Plant response rating, Goosegrass [9, 26] | Plant response rating (0 to 100), Kochia ([11]; preemergence, Rate 250 g/ha) | Plant response rating (0 to 100), Kochia ([11]; preemergence, Rate 500 g/ha) | Plant response rating, Lambsquarters ([12]; Rate 62 g/ha) | Plant response rating (0 to 100), Lambsquarters [12, 28] | Plant response rating, Lambsquarters ([12]; preemergence, Rate 125 g/ha) | Plant response rating, Lambsquarters ([12]; preemergence, Rate 250 g/ha) | Plant response rating (0 to 100), Pigweed [14, 27] | Plant response rating (0 to 100), Cupgrass, Woolly ([17]; preemergence, Rate 250 g/ha) | Plant response rating (0 to 100), Cupgrass, Woolly ([17]; preemergence, Rate 500 g/ha) | Plant response rating, Cupgrass, Woolly [17, 26] | Barnyardgrass plant response rating ([19]; Rate 250 g/ha) | Barnyardgrass plant response rating ([19]; Rate 500 g/ha) | Ducksalad plant response rating ([20]; Rate 250 g/ha) | Ducksalad plant response rating ([20]; Rate 500 g/ha) | Plant response rating, Ducksalad [20, 30]
90: Plant response rating, Goosegrass [9, 22] | Plant response rating, Kochia [11, 26] | Flatsedge plant response rating ([21]; Rate 250 g/ha) | Flatsedge plant response rating ([21]; Rate 500 g/ha) | Plant response rating, Flatsedge [21, 30]
50: Plant response rating, Nightshade [1, 23] | Plant response rating (0 to 100), Johnsongrass ([10]; preemergence, Rate 250 g/ha)
70: Plant response rating, Nightshade [1, 24] | Plant response rating (0 to 100), Surinam grass ([2]; preemergence, Rate 250 g/ha) | Plant response rating, Surinam grass [2, 26] | Plant response rating (0 to 100), Johnsongrass ([10]; preemergence, Rate 500 g/ha) | Plant response rating, Cupgrass, Woolly [17, 22]
60: Plant response rating, Surinam grass [2, 22] | Plant response rating, Ragweed, Common [5, 23] | Plant response rating, Barnyardgrass [19, 30]
30: Plant response rating, Nightshade [1, 22] | Plant response rating, Crabgrass [7, 25] | Plant response rating, Goosegrass [9, 25]
10: Plant response rating, Johnsongrass [10, 26] | Plant response rating, Soybean [15, 23] | Plant response rating (0 to 100), Velvetleaf [16, 27]
